Usually Km stands for the substrate concentration at which the rate is half of its maximum. As a reminder, the IC50 is the concentration at which inhibition is half-maximal. The term pKi denotes −log10 of the Ki, conventionally taken in molar units. The low end stands for a high Ki, the high end for a low Ki.

The target in assay [1] is T1, h-meprin β (Homo sapiens, UniProt Q16820).
T1 sequence (Q16820 62-701): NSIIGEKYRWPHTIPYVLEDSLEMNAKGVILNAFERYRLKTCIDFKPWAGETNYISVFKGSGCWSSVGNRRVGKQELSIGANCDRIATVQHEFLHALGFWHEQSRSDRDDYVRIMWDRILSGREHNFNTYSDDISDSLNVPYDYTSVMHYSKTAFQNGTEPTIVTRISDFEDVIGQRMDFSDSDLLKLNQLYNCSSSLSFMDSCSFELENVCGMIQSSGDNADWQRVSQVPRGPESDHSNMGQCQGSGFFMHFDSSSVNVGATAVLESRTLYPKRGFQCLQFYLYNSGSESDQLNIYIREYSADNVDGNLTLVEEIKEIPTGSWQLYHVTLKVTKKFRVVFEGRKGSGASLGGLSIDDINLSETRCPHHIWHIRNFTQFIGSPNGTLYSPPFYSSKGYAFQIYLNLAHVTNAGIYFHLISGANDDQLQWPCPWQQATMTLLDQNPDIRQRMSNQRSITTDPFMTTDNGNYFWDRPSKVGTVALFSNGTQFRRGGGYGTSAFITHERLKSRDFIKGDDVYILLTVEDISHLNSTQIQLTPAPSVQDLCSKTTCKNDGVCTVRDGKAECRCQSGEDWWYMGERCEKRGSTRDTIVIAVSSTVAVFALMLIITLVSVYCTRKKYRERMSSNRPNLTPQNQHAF
Briefly: coupled continuous fluorometric assay with auxiliary enzyme PtP and fluorogenic AMC substrates. It counts as biochemical. More on the design: His6 (N); made in house; host or cells: Pichia pastoris strain X33. The method, then:
(§1) The enzyme assay consisted of prolyl tripeptidyl aminopeptidase from Porphyromonas gingivalis, an appropriate amount of human h-meprin β or α and the chromogenic substrate KKGYVADAP-pNA (stock solution in assay buffer) in a final volume of 0.25 ml h-meprin β assay buffer (20 mM Tris-HCI; pH 7.5) or h-meprin α assay buffer (20 mM HEPES, 10 mM CaCl2, 0,05% Brij; pH 7.4). After 10 minutes preincubation, the reaction was started by addition of the substrate. Subsequently, absorption was measured at 405 nm for 20 minutes with the Tecan Genios Pro Reader (Tecan) at 30°C. PtP activity was determined using an absorption coefficient of 5717 mol/l, which was obtained from a standard curve of p-nitroaniline under assay conditions. A molecular mass of 79500 Da was used to calculate the Kcat value. Prolyl tripeptidyl aminopeptidase activity was measured utilizing the substrate DAP-pNA. In order to maintain conditions identical to those used in the h-meprin β assay, samples (250 µl) contained a final concentration of 0.2% (v/v) dimethyl sulfoxide. One unit is defined as the amount of enzyme that hydrolyses 1 µmol DAP-pNA per minute under the conditions described. The specific activity of the enzyme preparation was 7 units/mg.
Conversion of the fluorogenic substrate KKGYVADAP-AMC by PtP and h-meprin β was analyzed according to assay conditions as described for the chromogenic substrate. Fluorescence was measured at excitation/emission wavelengths of 380/460 nm. The fluorescence coefficient of 8.5×10^8 mol/l for DAP-AMC was calculated from a standard curve of 7-Amino-4-methylcoumarin under assay conditions.

Assay [2] deals with T1, h-meprin β. Also noted: His6 (N); made in house; host or cells: Pichia pastoris strain X33. The settings on record: cited from earlier work; for substrate inhibition at concentrations above: internally quenched substrate, meprin β.
Assay [3] addresses T1, h-meprin β. Briefly: coupled continuous spectrophotometric assay with auxiliary enzyme PtP and chromogenic pNA substrates. The class given is biochemical. Also noted: His6 (N); made in house; host or cells: Pichia pastoris strain X33. The settings on record: for Kcat / Kcat/KM (s^-1M^-1) / Km: hydrolysis of pNA substrate by meprin β, means ± S.D. The method, then:
as §1
(§2) In the first reaction of the substrate conversion, KKGYVADAP-pNA is cleaved to DAP-pNA by meprin α or β. The second reaction, the release of p-nitroaniline by PtP can be measured in this assay and correlates to the amount of released DAP-pNA by meprin. Based on these terms, a rate equation for irreversible coupled enzyme assays was first described by McClure, giving the opportunity of calculating the required amount of an auxiliary enzyme to minimize the time to reach steady-state conditions (McClure, W. R., Biochemistry. 1969, 8 (7), 2782-2786; Schilling, S., Hoffmann, T., Wermann, M., Heiser, U., Wasternack, C., Demuth, H.-U., Analytical biochemistry. 2002, 303 (1), 49-56, 10.1006/abio.2001.5560). The amount of auxiliary enzyme was calculated as follows (Eq. 1): V2 = −Km2 × ln(1−[DAP−pNA]t/[DAP−pNA]ss)/t. [formula]

The target of assay [4] is T1, h-meprin β. Described as above. The class given is biochemical. Also noted: His6 (N, cleaved yes); made in house; host or cells: Pichia pastoris X33 (pPICZαC), protein harvested from the fermenter supernatant. As to the method:
as §1, §2

In assay [5] the target is T2, h-meprin α (Homo sapiens, UniProt Q16819).
T2 construct: His-tag (N); made in house; host or cells: Drosophila melanogaster S2 cells, stably transfected (pMT/BiP/V5-His C), protein harvested from the culture medium
T2 sequence (Q16819 66-746): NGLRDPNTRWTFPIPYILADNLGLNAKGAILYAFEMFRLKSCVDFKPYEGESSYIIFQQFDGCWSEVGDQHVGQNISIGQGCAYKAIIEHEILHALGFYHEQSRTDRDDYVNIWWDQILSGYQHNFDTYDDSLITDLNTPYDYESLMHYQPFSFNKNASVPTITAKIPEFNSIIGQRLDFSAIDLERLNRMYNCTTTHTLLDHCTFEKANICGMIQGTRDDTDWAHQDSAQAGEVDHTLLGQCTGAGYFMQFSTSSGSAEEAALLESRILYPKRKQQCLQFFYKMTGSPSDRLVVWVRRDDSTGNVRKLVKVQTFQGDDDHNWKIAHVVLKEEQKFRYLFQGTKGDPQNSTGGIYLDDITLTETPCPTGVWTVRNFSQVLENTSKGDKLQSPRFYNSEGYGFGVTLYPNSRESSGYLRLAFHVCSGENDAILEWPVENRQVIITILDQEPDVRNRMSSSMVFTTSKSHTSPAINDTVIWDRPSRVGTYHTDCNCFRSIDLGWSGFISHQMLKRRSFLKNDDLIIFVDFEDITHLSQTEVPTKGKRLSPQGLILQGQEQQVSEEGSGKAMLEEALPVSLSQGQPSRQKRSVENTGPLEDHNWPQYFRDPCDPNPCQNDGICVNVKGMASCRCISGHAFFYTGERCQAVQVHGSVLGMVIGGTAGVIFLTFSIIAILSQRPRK
Briefly: non-coupled assay with internally quenched fluorogenic substrate. The class given is biochemical. The settings on record: fluorogenic substrate Abz-YVADAPK(Dpn)G-OH; unpublished data.

The target of assay [6] is T2, h-meprin α. The assay is described as follows: coupled continuous spectrophotometric assay with auxiliary enzyme PtP and chromogenic substrate KKGYVADAP-pNA. It counts as biochemical. As to the method:
as §1, §2

Assay [7] addresses T1, h-meprin β. More on the design: His6 (N, cleaved yes); made in house; host or cells: Pichia pastoris X33 (pPICZαC), protein harvested from the fermenter supernatant. The settings on record: fluorogenic substrate Abz-YVAEAPK(Dpn)G-OH; from Schlenzig et al. 2015; cited from earlier work.
The mark [8] stands for this setting: hydrolysis of AMC substrate by meprin β, means ± S.D.
The mark [9] stands for this setting: Dixon plot, four substrate concentrations of KKGYVADAP-pNA.
Where [10] appears, read: chromogenic substrate KKGYVADAP-pNA, coupled continuous assay, means ± S.D.
Setting [11] is: substrate KKGYVADAP-pNA, six inhibitor and four substrate concentrations.
Setting [12] is: hydrolysis of internally quenched substrate by meprin β, from Schlenzig et al. 2015.

pKi: −log10 of the molar value. Like-named read-outs stand apart in the source and are kept apart here. Peptide text beside a SMILES is read from it. * marks the point of attachment. pNA = O=[N+]([O-])c1ccc(N*)cc1; AMC = Cc1cc(=O)oc2cc(N*)ccc12

Turning to `Cc1cc(=O)oc2cc(NC(=O)[C@@H]3CCCN3C(=O)[C@H](C)NC(=O)[C@H](CC(=O)O)NC(=O)[C@H](C)NC(=O)[C@@H](NC(=O)[C@H](Cc3ccc(O)cc3)NC(=O)CNC(=O)[C@H](CCCCN)NC(=O)[C@@H](N)CCCCN)C(C)C)ccc12` [KKGYVADAP-AMC, H-Lys-Lys-Gly-Tyr-Val-Ala-Asp-Ala-Pro-AMC] (H-KKGYVADAP-{AMC}), the substrate inhibition result at h-meprin β [1] (at concentrations up to 2 mM) is “no inhibitory effect”. For the same molecule, at h-meprin β [1] (setting [8]), the “Kcat (s^-1)” value is listed as 4.3 ± 6.1×10^-1 s^-1, the “Kcat/KM (s^-1M^-1)” value is listed as 6.0×10^4 ± 1.6×10^4 s^-1M^-1 and the Km worked out at 74 µM.
Consider `CC(=O)N[C@@H](CCCCN)C(=O)N[C@@H](CCCCN)C(=O)NCC(=O)N[C@@H](Cc1ccc(O)cc1)C(=O)N[C@H](C(=O)N[C@@H](C)C(=O)N[C@@H](CC(=O)O)C(=O)N[C@@H](C)C(=O)N1CCC[C@H]1C(=O)Nc1ccc2c(C)cc(=O)oc2c1)C(C)C` [Ac-KKGYVADAP-AMC] (Ac-KKGYVADAP-{AMC}), for which, at h-meprin β [1] (setting [8]), the “Kcat” value was 6.3 ± 1 s⁻¹, the “Kcat/KM (s^-1M^-1)” value is recorded as 10.0×10^4 ± 1.4×10^4 s^-1M^-1 and the Km was found to be 64 µM.
Regarding Abz-MGWMDEIDK(Dnp)SG-OH [OCK+], on h-meprin β [2], the “substrate inhibition at concentrations above” value was “above 40 µM”.
For the molecule `CC(C)[C@H](NC(=O)[C@H](Cc1ccc(O)cc1)NC(=O)CNC(=O)[C@H](CCCCN)NC(=O)[C@@H](N)CCCCN)C(=O)N[C@@H](C)C(=O)N[C@@H](CC(=O)O)C(=O)N[C@@H](C)C(=O)N1CCC[C@H]1C(=O)Nc1ccc([N+](=O)[O-])cc1` [KKGYVADAP-pNA, H-Lys-Lys-Gly-Tyr-Val-Ala-Asp-Ala-Pro-pNA] (H-KKGYVADAP-pNA), at h-meprin β [3] (at concentrations up to 2 mM), the substrate inhibition entry is given as “no inhibitory effect”. Moreover, at h-meprin β [3], the “Kcat” value came to 20 ± 4.1 s⁻¹, the “Kcat/KM (s^-1M^-1)” value was 11.0×10^4 ± 4.8×10^3 s^-1M^-1 and the Km amounted to 180 µM.
For the molecule `CCCCC[C@H](CC(=O)NO)C(=O)N[C@H](C(=O)N1CCC[C@H]1CO)C(C)C` [actinonin], the mode of inhibition result at h-meprin β [4] (setting [9]) and at h-meprin α [6] (setting [9]) was “competitive” each time. Moreover, the IC50 against h-meprin β [4] (setting [10]) was 760 nM; on h-meprin α [5] it was 9.6 nM; against h-meprin α [6] (setting [10]) it was 12 nM; at h-meprin β [7], 440 nM. For the same molecule, the values for the pKi on h-meprin β [4] (setting [11]) and on h-meprin α [6] (setting [11]) were 6.57 and 8.49, respectively.
Turning to Abz-YVAEAPK(Dpn)G-OH, at h-meprin β [2] (setting [12]), the “Kcat” value is 35.0 ± 2.5 s⁻¹, the “Kcat/KM (s^-1M^-1)” value was 129.0×10^4 ± 3.0×10^4 s^-1M^-1 and the Km was 27 µM. The “substrate inhibition at concentrations above” value at h-meprin β [2] is “above 100 µM”.
As to `CC(=O)N[C@@H](CCCCN)C(=O)N[C@@H](CCCCN)C(=O)NCC(=O)N[C@@H](Cc1ccc(O)cc1)C(=O)N[C@H](C(=O)N[C@@H](C)C(=O)N[C@@H](CC(=O)O)C(=O)N[C@@H](C)C(=O)N1CCC[C@H]1C(=O)Nc1ccc([N+](=O)[O-])cc1)C(C)C` [Ac-KKGYVADAP-pNA] (Ac-KKGYVADAP-pNA), on h-meprin β [3], the “Kcat” value stood at 20.0 ± 3.5 s⁻¹, the “Kcat/KM (s^-1M^-1)” value is 6.4x10^4 ± 2.5x10^4 s^-1M^-1 and the Km was determined as 360 µM.
Taken in the same sequence, the figures for `CC(=O)N[C@@H](CCCNC(=N)N)C(=O)NCC(=O)N[C@@H](CCCNC(=N)N)C(=O)NCC(=O)N[C@@H](Cc1ccc(O)cc1)C(=O)N[C@H](C(=O)N[C@@H](C)C(=O)N[C@@H](CC(=O)O)C(=O)N[C@@H](C)C(=O)N1CCC[C@H]1C(=O)Nc1ccc([N+](=O)[O-])cc1)C(C)C` [Ac-RGRGYVADAP-pNA] (Ac-RGRGYVADAP-pNA) were 19.9 ± 10.2 s⁻¹, 15.0×10^4±1.1×10^5 s^-1M^-1 and 140 µM.

Source of the values: patent EP3635128B1, “CONTINUOUS SPECTROMETRIC ASSAYS FOR MEASURING MEPRIN ACTIVITY USING AN AUXILIARY ENZYME” (Vivoryon Therapeutics AG, priority 2017, dated 2018).
